# Key:
# Assay in all cases: relative viability (nuclei count vs DMSO), 5 days (fraction); higher = more cells survive
# Cediranib + Alpelisib = compound: COc1cc2c(Oc3ccc4[nH]c(C)cc4c3F)ncnc2cc1OCCCN1CCCC1 [Cediranib] + Cc1nc(NC(=O)N2CCC[C@H]2C(N)=O)sc1-c1ccnc(C(C)(C)C(F)(F)F)c1 [Alpelisib] (partner 2 µM)
# Outline: (§1)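 For relative viability, nuclei counts in treated wells were divided by those in vehicle wells. Lung cancer cell lines had been pin-tool dosed in 1536-well plates the day after seeding and cultured for 5 days, then fixed and stained in one step (final 0.05% Triton X-100, 1% formaldehyde, 1 ug/ml Hoechst) and imaged at 4×. Doses were one drug alone or a fixed anchor-drug dose plus five library-drug doses (not always all listed) in √10 steps, and values are duplicate-plate medians.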
# Decitabine + Foretinib = compound: Nc1ncn([C@H]2C[C@H](O)[C@@H](CO)O2)c(=O)n1 [Decitabine] + COc1cc2c(Oc3ccc(NC(=O)C4(C(=O)Nc5ccc(F)cc5)CC4)cc3F)ccnc2cc1OCCCN1CCOCC1 [Foretinib] (partner 0.25 µM)
# Outline: as §1
# Decitabine + Alpelisib = compound: Nc1ncn([C@H]2C[C@H](O)[C@@H](CO)O2)c(=O)n1 [Decitabine] + Cc1nc(NC(=O)N2CCC[C@H]2C(N)=O)sc1-c1ccnc(C(C)(C)C(F)(F)F)c1 [Alpelisib] (partner 2 µM)
# Outline: as §1
# [1] = compound: O=C(C[C@H]1NCCC[C@@H]1O)Cn1cnc2cc(Br)c(Cl)cc2c1=O (racemic) [Halofuginone] + Nc1ncn([C@H]2C[C@H](O)[C@@H](CO)O2)c(=O)n1 [Decitabine] (partner 2 µM)
# Outline: as §1
Cell Line,relative viability (Cediranib + Alpelisib; first compound 0.04 µM),relative viability (Cediranib + Alpelisib; first compound 0.1265 µM),relative viability (Cediranib + Alpelisib; first compound 0.4 µM),relative viability (Cediranib + Alpelisib; first compound 1.265 µM),relative viability (Cediranib + Alpelisib; first compound 4 µM),relative viability (Decitabine + Foretinib; first compound 0.1265 µM),relative viability (Decitabine + Foretinib; first compound 0.4 µM),relative viability (Decitabine + Foretinib; first compound 1.265 µM),relative viability (Decitabine + Foretinib; first compound 4 µM),relative viability (Decitabine + Alpelisib; first compound 0.04 µM),relative viability (Decitabine + Alpelisib; first compound 0.1265 µM),relative viability (Decitabine + Alpelisib; first compound 0.4 µM),relative viability (Decitabine + Alpelisib; first compound 1.265 µM),relative viability (Decitabine + Alpelisib; first compound 4 µM),relative viability ([1]; first compound 0.001 µM),relative viability ([1]; first compound 0.003162 µM),relative viability ([1]; first compound 0.01 µM),relative viability ([1]; first compound 0.03162 µM),relative viability ([1]; first compound 0.1 µM),relative viability (Decitabine + Foretinib; first compound 0.04 µM)
NCI-H2347,1.15,0.997,0.919,0.975,1.12,0.857,0.454,0.683,0.819,0.898,0.848,0.675,0.597,0.665,0.595,0.676,0.567,0.65,0.659,–
NCI-H2405,0.815,1.07,0.631,0.77,0.758,0.918,0.863,0.628,0.462,0.737,0.753,0.698,0.494,0.373,0.74,0.781,0.767,0.722,0.632,0.957
NCI-H3122,0.894,1.06,0.731,0.852,0.906,0.775,0.715,0.539,0.575,0.666,0.774,0.732,0.709,0.528,0.438,0.442,0.381,0.413,0.405,0.898
PC-3 [JPC-3],0.953,0.976,0.998,1.02,0.97,0.71,0.588,0.54,0.472,–,0.773,0.581,0.493,0.479,0.77,0.832,0.861,0.923,0.781,0.833
PC-14,0.96,1,0.906,0.965,0.986,0.744,0.411,0.313,0.282,0.623,0.723,0.411,0.196,0.18,0.231,0.273,0.237,0.259,0.0807,–
RERF-LC-KJ,0.771,–,0.769,0.761,0.739,0.84,0.741,0.689,0.635,0.87,0.914,0.702,0.643,0.569,0.842,0.807,0.664,0.753,0.563,0.877
SK-LU-1,0.753,1.2,0.958,0.933,1.01,0.674,0.376,0.356,0.356,0.62,0.637,0.485,0.5,0.284,0.705,0.599,0.714,0.606,0.422,0.686
SK-MES-1,0.835,0.916,0.8,0.924,1.02,0.758,0.697,0.407,0.309,0.733,0.738,0.482,0.32,0.261,0.377,0.365,0.341,0.341,0.17,0.688
SW 1573,0.586,0.834,0.655,0.619,0.79,0.891,0.793,0.591,0.49,0.7,0.912,0.61,0.274,0.298,0.627,0.552,0.491,0.282,0.135,0.769
